How the values were obtained:
[1] = tested on: streptozotocin (STZ)-diabetic mice; test: Intravenous administration of IG1, STZ-diabetic mice; assay type: in vivo
Description: (§1) Male C57BL/6 mice were housed individually and given free access to a standard diet (65% carbohydrate, 4% fat, and 24% protein) or a high-fat diet (Quick Fat; 60.2% carbohydrate, 15.3% fat, and 24.5% protein; Clea Japan, Tokyo, Japan), starting at 5 weeks of age, for 5 weeks. Db/db mice also were housed individually and given free access to a standard diet. C57BL/6 mice at 5 weeks of age, were received a single dose of 75 μg/g body weight streptozotoxin (STZ). 7 days after injections, the mice, whose fasting plasma glucose concentrations were over 400 mg/dl, were used as STZ-diabetic mice. […]
(§2) Frozen livers were homogenized, and triglycerides were extracted with CHCl3:CH3OH (2:1, vol:vol), dried and resuspended in 2-propanol (17). Triglyceride contents were measured using Lipidos liquid (TOYOBO, Osaka, Japan). […] Glycogen content was determined by the phenol-sulfuric acid spectrophotometric method at 490 nm (18) and expressed as micrograms of glycogen per milligram of liver.
(§3) Blood glucose was assayed with Glucose Ace (Sanwa Kagaku Kenkyusho, Nagoya, Japan). Serum insulin and leptin were determined with ELISA kits (Morinaga Institute of Biological Science, Yokohama, Japan). Serum adiponectin and tumor necrosis factor-α (TNF-α) concentrations were measured with an ELISA kit (Ohtsuka Pharmaceutical, Tokyo, Japan) and a TNF-α assay kit (Amersham Biosciences, Uppsala, Sweden), respectively. […]

[2] = tested on: human colon cancer cells (CoCM-1); test: Cell proliferation / cell death assay, CoCM-1; assay type: cell-based; conditions: CoCM-1, 10-100 μM
Description: Human pancreatic cancer cell lines (Panc-1, MiaPaca2, BXPC3, Aspc 1), human hepatoma cell line (HuH7), human gastric cancer cell lines (AGS, MKN45), human colon cancer cell line (CoCM-1), human mammary cancer cell line (MCF-7), human neuroblastoma (SH-SY5Y), human prostate cancer cells (PC3), and murine Ehrlich ascites cancer cells and mouse 3T3-L1 fibroblasts were obtained from American Type Culture Collection (Rockville, Md., USA). The cancer cells were cultured in RPMI 1640 containing 10% fetal calf serum. Cultures were maintained at 37° C. in a humidified atmosphere of 5% CO2.
Cell proliferation assays were performed with the CellTiter 96 AQueous One Solution Cell Proliferation Assay kit according to the manufacturer's instructions (Promega, Madison, Wis., USA). Briefly, 5×10^3 cells/well in medium were placed onto 96-well plates. IGs were added to cellular cultures at final concentrations of 0, 1, 10, and 100 μM. Cultures were incubated for 3 days or 7 days and then added to 20 μL/well of CellTiter 96 AQueous One Solution Reagent, which contains a tetrazolium compound, 3-(4,5-dimethylthiazol-2-yl)-5-(3-carboxymethoxyphenyl)-2-(4-sulfophenyl)-2H-tetrazolium, an inner salt; MTS was added to the culture medium. After incubating the plate for 1 h in a CO2 incubator, absorbance at 490 nm was recorded with a 96-well plate reader.

[3] = tested on: C57B/6 mice on normal diets; test: Intravenous administration of IG1, mice on normal diets; assay type: in vivo
Description: as §1, §2, §3

## CCCCCCCCCCCCCCCC(=O)O[C@@H]1C(O)C(O)[C@H](O)C(O[C@H]2OC(CO)[C@@H](O)[C@H](O)C2N)C1O (stereo in doubt) [IG1, 2-Amino-2-deoxy-α-D-glucopyranosyl-(1→6)-2-palmitoyl-D-myo-inositol]
[1]; STZ-diabetic mice, data not shown
  hepatic and muscular glycogen synthesis: increases hepatic and muscular glycogen synthesis
[1]; intravenous, 0.3 mg per mice, 120-300 min after administration
  plasma glucose concentrations: significantly reduced plasma glucose concentrations
[2]
  rapid cancer cell death: rapid cancer cell death was demonstrated
[3]; intravenous, normal mice
  plasma glucose concentrations: reduced plasma glucose concentrations
[3]; mice on normal diets, data not shown
  hepatic and muscular glycogen synthesis: increases hepatic and muscular glycogen synthesis

Source: patent US20100197625A1, “SYNTHETIC LIPOPHILIC INOSITOL GLYCANS FOR TREATMENT OF CANCER AND GLUCOSE-METABOLISM DISORDERS” (priority 2006, published 2010)
